Experimental data: patent US20040204443A1, “Method for inducing pain relief using imidazo[1,2-a]pyridine derivatives” (priority 2003, published 2004)

Key:
[1] = tested on: intense, bilateral pain in both feet; assay: Case report: patient with bilateral foot pain, oral drug treatment; format: in vivo, human patient; settings: for decrease in pain: foot pain from stretched plantar fascia, earlier drug treatments
Description: Additionally, the patient was treated with topical lidocaine and with a tens machine.

[2] = may be eliminated more slowly in obese individuals; cited from earlier work
[3] = tested on: pain in patient with metastatic cancer; assay: Case report: second patient with metastatic cancer pain; format: in vivo, human patient
Text: A second patient with metastatic cancer was also experiencing pain and had reported little or no relief from common analgesics.

[4] = has been reported; cited from earlier work
[5] = tested on: intense, bilateral pain in both feet; assay: Case report: same foot-pain patient, topical application in a cream; format: in vivo, human patient; settings: applied topically in a cream

COc1cccc(C2(O)CCCCC2CN(C)C)c1 (centres unmarked) [Ultram]
decrease in pain ([1]; person): only the latter showing any decrease in pain

Cc1ccc(-c2nc3ccc(C)cn3c2CC(=O)N(C)C)cc1 [AMBIEN, N,N,6-trimethyl-2-p-tolyl-imidazo[1,2-a]pyridine-3-acetamide]
lipophilicity [2]: lipophilic
analgesic effect [3]: marked analgesic effect
time in which metabolized [4]: 6 to 8 h
pain relief after topical application [5]: reported pain relief
duration of pain abatement ([1]; obese person, 10 mg H.S.): 12 to 14 h
other foot pains (arch, heel, cuboid area) ([1]; person): ameliorated
effective dosage ([1]; person, 10 mg H.S.): about 0.08 mg per kg
abatement of pain ([1]; person, 10 mg H.S., able to walk prior to retiring): noticeable abatement of pain

Nc1nnc(-c2cccc(Cl)c2Cl)c(N)n1 [Lamictal]
decrease in pain ([1]; person): only the latter showing any decrease in pain

CC1(C)O[C@@H]2[C@@H](CO[C@@]3(COS(N)(=O)=O)OC(C)(C)O[C@@H]23)O1 [Topamax]
decrease in pain ([1]; person): only the latter showing any decrease in pain

CNCCC=C1c2ccccc2CCc2ccccc21 [Parmelar, nortryptiline]
decrease in pain ([1]; person): only the latter showing any decrease in pain

NCC1(CC(=O)O)CCCCC1 [Neurontin]
decrease in pain ([1]; person): only the latter showing any decrease in pain

CN(C)CCC=C1c2ccccc2CCc2ccccc21 [Elavil, amitryptiline]
decrease in pain ([1]; person): only the latter showing any decrease in pain
